Data from patent publication US20040224935A1, “Topical antiandrogenic steroids” (Endorecherche, Inc., priority 2003, published 2004).
pIC50: −log10 of the molar value. Where two headings read alike, the source gives them in different places.

Assays:
rat prostate = test: Systemic antiandrogenic activity in immature male rats (castrated, DHT implant), prostate weight; details: po, 168 h, 0.5 mg/animal per os once daily 7 days, % efficacy relative to inhibition by flutamide, read-out: RAT (in vivo) (systemic) Prostate Inh. % inh. (0.5 mg, per os)
Method: Column 5 represents the % of antiandrogenic efficacy in rat prostate, relatively to the percentage of inhibition of flutamide calculated by the formula:
(§1) % efficacy versus Flu=100×% inhib (compound)/% inhib (Flu).
(§2) Where the percentage of inhibition (% inhib) is calculated by the following formula:
% lnhib=100−[W (compound)−W (control)/W (DHT)−W (control)]×100.
W is the weight of the prostate.
(§3) C Systemic antiandrogenic activity (immature male rats)
(§4) 1. Animals Immature male rats (Crl:CD(SD)Br) 22 to 24-day old were obtained from Charles-River, Inc. (St-Constant, Quebec, Canada) and housed up to 5 per cage in plastic bins in a temperature (23±1° C.)—and light (12 h light/day, lights on at 7h15)—controlled environment. The rats were fed rodent chow and tap water ad libitum. The day following their arrival, the animals were orchidectornized (CX) under Isoflurane anesthesia via scrotal route and randomly assigned to groups of 5 animals. One silastic implant of dihydrotestosterone (DHT; length of implant: 1 cm) was inserted subcutaneously in the dorsal area of animals at the time of orchidectomy. One group of 5 animals was CX only as control (no DHT implant inserted).
(§5) 2. Treatments To evaluate the antiandrogenic activity, tested compounds were administered orally by gavage once daily at a dose of 0.5 mg/animal for 7 days (SD 1 to 7). Compounds were solubilized (when possible) in dimethylsulfoxide (DMS, 10% final concentration) and administered as suspension in 0.4% methylcellulose. Rats in CX control and CX+DHT control groups received the vehicle alone during the 7-day period. One group of animals received the antiandrogen Flutamide as reference. The animals were killed by cervical dislocation under isoflurane anesthesia on the 8th morning following castration. The ventral prostate and seminal vesicles were rapidly dissected and weighed.
(§6) 3. Calculations and Statistical Analysis The percentage of inhibition (% inhib) is calculated by the following formula:
(§7) % Inhib=100−[W (compound)−W (control)/W (DHT)−W (control)]×100.
(§8) This percentage is reported as % of efficacy, relatively to the percentage of inhibition of flutaride calculated by the formula: % efficacy versus Flu=100×% inhib (compound)/% inhib (Flu).
(§9) W is the weight of the prostate or the seminal vesicle.

[1] = test system: Shionogi mouse mammary carcinoma cells; test: In vitro androgenic/antiandrogenic activity, DHT-stimulated Shionogi cell number; format: cell-based; details: for pIC50: inhibition of DHT-stimulated cell number, 10-12 days, read-out: Shionogis (In Vitro) IC50; for IC50: read-out: Shionogis (In Vitro) IC50(nM), inhibition of DHT-stimulated cell number, 10-12 days; for Shionogis (In Vitro) VS OH-FLU (ratio of Ki of hydroxyflutamide versus tested compound): OH-Flu = 1, DHT-stimulated cell number, higher values preferable
rat seminal vesicle = test: Systemic antiandrogenic activity in immature male rats (castrated, DHT implant), seminal vesicle weight; details: po, 168 h, 0.5 mg/animal per os once daily 7 days, % efficacy relative to inhibition by flutamide, read-out: RAT (in vivo) (systemic) SV Inh % inh. (0.5 mg, per os)
Method: Column 6 represents the % of antiandrogenic efficacy on the rat seminal vesicle, relative to the percentage of inhibition by flutamide calculated by the formula:
as §1, §2, §7
W is the weight of the seminal vesicle.
as §3, §4, §5, §6, §8, §9

[2] = test system: Hamster's ear sebaceous glands; test: Topical antiandrogenic activity, histomorphometry of the ear sebaceous glands in the hamster; format: in vivo, Male Golden Syrian hamster; details: Mesocricetus auratus, 336 h, once daily, 14 days, sebaceous gland area, read-out: Antiandrogenic activity in Hamster's sebaceous glands Inh. Vs Cx (%); for inhibition in vivo at 0.001 mg: dose 1 μg applied topically on left ear of intact male hamster; for inhibition in vivo at 0.003 mg: dose 3 μg applied topically on left ear of intact male hamster; for inhibition in vivo at 0.01 mg: dose 10 μg applied topically on left ear of intact male hamster
Excerpt: Column 3 represents the dose of antiandrogenic compounds applied on the left ear of the intact male hamster.
Column 4 represents the relative inhibition in % of the area of the sebaceous gland of the left ear versus control hamster. Higher values approaching the effect of castration are preferable
The Antiandrogenic activity of antiandrogenic compounds has been measured using a Histomorphometry assay of the Ear Sebaceous Glands in the Hamster
1. Animals Male Golden Syrian, Hamster (SYR) of 110-120 g were obtained from Harlan Sprague Dawlay (Madison, USA) and housed up to 2 per cage in plastic cages in a temperature (22±3° C.) and light (12 h light/day, lights on at 7 h 15) in a controlled environment. The hamsters were fed with Certified Rodent Diet 5002 (pellet) and tap water ad libitum. The animals were acclimated for at least five days before the beginning of the study. Animals were randomly assigned to groups of eight hamsters. One group of hamsters was castrated under isoflurane-induced anesthesia on the day of dosing initiation (SD 1) and used as control group.
2. Treatments To evaluate the antiandrogenic activity, tested compounds were applied topically on the inner part of the left ear, once daily, for 14 days. Ten μL solution of acetone: ethanol: propylene Glycol (1:1:2; v:v:v) containing 0.1, 0.3 or 1.0 mg/mL of tested compound was carefully applied onto a region between the two cartilage ridges of the ventral surface of left pinna. For animals in the castrated and intact control groups ten-μL vehicle was applied onto the left ear. No solution will be applied on the right ear for any animals of the study.
3. Postmortem Observations and Measurements On Study Day 15, the hamsters were euthanized by cervical dislocation under isoflurane anesthesia. The left and right ears were collected attached together by the head skin, flat fixed on a paper and were immersed in 10% neutral buffered formalin. From the flat fixed ear and using paper puncture that makes a hole of 6 mm, the region where solution was applied was collected from each ear. Using a scalpel blade, the collected 6 mm round ear specimen was cut in the middle between the two cartilage ridges. The two equal parts of the ear round specimen were embedded in paraffin. After processing the tissue, the two parts were vertically embedded parallel to each other in a way that the flat 6 mm area was facing out. From each paraffin block, one section (5 μm thick) was cut and collected on a glass slide. Thus, each slide contained two elongated sections of 6 mm length. Slides were stained with hematoxylin and eosin.
4. Analysis of Sebaceous Gland Area Using the video camera and objective lens number X5 of the light microscope, the resulting field that appears on the screen has a length of 0.953 mm. From the glass slide, when we have examined the first 6 mm long section from the left to the right, the first and second fields were ignored and the third and fourth fields were captured for analysis by the image analyzer. Each field has the length of 0.953 mm. With the help of the screen mouse, the sebaceous glands within the whole field length (0.953mm) were marked. Also, an area with the length of the whole field and the height between stratum granulosum and the upper edge of the cartilage was drawn.
The image analyzer calculated the total area of the sebaceous glands (μm^2) in each examined field. We also obtained the area, which has the length of 0.953 mm and the height between stratum granulosum and the cartilage. In addition, the percentage of the area occupied by the glands was obtained. Thus, for each ear, two sections were cut and two fields from each section were analyzed. The total of the four readings was averaged and the mean standard of error calculated by the image analyzer. The results were expressed in μm^2 as the total surface of glands per field and also as percentage of the area occupied by the glands.

In the case of C[C@@H]1CCC2C3CCc4c(C#N)cccc4C3CC[C@]2(C)[C@H]1O (stereo partly shown) [EM-3803], the inhibition in vivo at 0.5 mg (rat prostate) was 0%, the pIC50 ([1]; Mus musculus) was 7.96 and the pIC50 [1] was 8.07. The inhibition in vivo at 0.5 mg (rat seminal vesicle) was 30%, the inhibition in vivo at 0.001 mg [2] was 33.3% and the inhibition in vivo at 0.003 mg [2] was 51.8%. The inhibition in vivo at 0.01 mg [2] was 37%.

With CC[C@@H]1CC2C3CCc4c(C#N)cccc4C3CC[C@]2(C)[C@H]1O (stereo partly shown) [EM-3852] the inhibition in vivo at 0.5 mg (rat prostate) was 0%, the IC50 ([1]; Mus musculus) was 16.1 nM and the “Shionogis (In Vitro) VS OH-FLU (ratio of Ki of hydroxyflutamide versus tested compound)” value [1] was 8.7. It also gave an inhibition in vivo at 0.5 mg (rat seminal vesicle) of 0%, an inhibition in vivo at 0.003 mg [2] of 66.6% and an inhibition in vivo at 0.01 mg [2] of 70.4%.

For CC#Cc1ccc2c(c1C#N)CCC1C2CC[C@]2(C)C(=O)CCC12 (stereo partly shown) [EM-4142], the inhibition in vivo at 0.5 mg (rat prostate) was 0%, the IC50 ([1]; Mus musculus) was 29 nM and the “Shionogis (In Vitro) VS OH-FLU (ratio of Ki of hydroxyflutamide versus tested compound)” value [1] was 3.7. The inhibition in vivo at 0.5 mg (rat seminal vesicle) was 22%, the inhibition in vivo at 0.001 mg [2] was 18.5% and the inhibition in vivo at 0.003 mg [2] was 18.5%. The inhibition in vivo at 0.01 mg [2] was 37%.

For CC(C)[C@H]1CC2C3CCc4c(C#N)cccc4C3CC[C@]2(C)[C@H]1O (stereo partly shown) [EM-4157], the inhibition in vivo at 0.5 mg (rat prostate) was 0%, the IC50 ([1]; Mus musculus) was 33 nM and the “Shionogis (In Vitro) VS OH-FLU (ratio of Ki of hydroxyflutamide versus tested compound)” value [1] was 5. The inhibition in vivo at 0.5 mg (rat seminal vesicle) was 55%, the inhibition in vivo at 0.001 mg [2] was 18.5% and the inhibition in vivo at 0.003 mg [2] was 29.6%. The inhibition in vivo at 0.01 mg [2] was 40.7%.

With C#Cc1ccc2c(c1)CCC1C2CC[C@@]2(C)C1C[C@@H](C)[C@@H]2O (stereo partly shown) [EM-5035] the inhibition in vivo at 0.5 mg (rat prostate) was 11%, the IC50 ([1]; Mus musculus) was 66 nM and the “Shionogis (In Vitro) VS OH-FLU (ratio of Ki of hydroxyflutamide versus tested compound)” value [1] was 1.6. For the same compound, the inhibition in vivo at 0.5 mg (rat seminal vesicle) was 4%, the inhibition in vivo at 0.001 mg [2] was 3.7% and the inhibition in vivo at 0.003 mg [2] was 11.1%. The inhibition in vivo at 0.01 mg [2] was 51.9%.
